From patent publication US6869935B2, “Gene Therapy for proliferative vitreoretinopathy” (priority 1996, dated 2005)
≈ marks a conversion by molar mass, not a printed value.

Experiments:
HSV-tk positive RDFs = assay: In vitro sensitivity to ganciclovir (XTT assay), HSV-tk positive RDFs; format: cell-based, rabbit; settings: Oryctolagus cuniculus, 72 hr of incubation, read-out: IC50 (concentration required for 50% cytotoxicity)
Protocol: (§1) The sensitivity of HSV-tk positive RDFs (100% HSV-tk transduced RDFs) and HSV-tk negative RDFs to ganciclovir was determined by using a tetrazolium-based calorimetric assay (XTT assay) (Scudiero et al., Cancer Research, Vol. 48, pgs. 4827-4833 (1988); Roehm et al., J. Immunol. Methods, Vol. 142, pgs. 257-265 (1991)). HSV-tk positive RDFs and HSV-tk negative RDFs were seeded at a density of 5×10^3 cells/well of 96-well culture plates (Corning) and incubated with DMEM-10 at 37° C. in 5% CO2 overnight. Then cells were treated with DMEM-10 containing various concentrations of ganciclovir (GCV; Cytovene; Syntex Inc., Palo Alto, Calif.) or only DMEM-10. After a total of 72 hr incubation, XTT assay was performed using a kit (cell proliferation II; Boehringer Mannheim, Indianapolis, Ind.). The results were read on a microplate reader (MR700; Dynatech Laboratories, Inc., Chantilly, Va.).

HSV-tk negative RDFs = assay: In vitro sensitivity to ganciclovir (XTT assay), HSV-tk negative RDFs; format: cell-based, rabbit; settings: concentration range 0.001-50 μg/ml
Protocol: as §1

[1] = tested on: experimental proliferative vitreoretinopathy (HSV-tk positive/negative RDFs); assay: In vivo bystander effect in experimental proliferative vitreoretinopathy; design: species or system pigmented rabbits
Protocol: The right eye was used from each of 20 pigmented rabbits of both sexes, weighing 2.5 to 3.5 kg each. Vitrectomy was performed in the same manner as described above. One week after vitrectomy, group D (n=7) received an injection into the vitreous cavity of a mixture of 0.25×10^4 homologous HSV-tk positive RDFs (5% of total cells) and 4.75×10^4 homologous HSV-tk negative RDFs (95% of total cells). Group E (n=7) received a mixture of 0.05×10^4 homologous HSV-tk positive RDFs […] HSV-tk negative RDFs (95% of total cells). Group F (n=6) received 5.0×10^4 homologous HSV-tk negative RDFs as a control. All eyes received 200 μg of ganciclovir (0.1 ml of solution dissolved in distilled water) just after the cell injection and on day 4. Indirect ophthalmoscopic examinations were performed in a masked fashion on days 4, 7, 14 and 28. Clinical severity of PVR was graded from 0 to 5 as described above.

[2] = tested on: fibroblasts bearing the HSV-TK gene; settings: rabbits; intraocular injection of fibroblasts bearing the HSV-TK gene; cited from earlier work
[3] = tested on: mixtures of HSV-tk-positive and -negative RDFs; assay: In vitro bystander effect, cocultures of HSV-tk positive and negative cells; format: cell-based, rabbit; settings: 1 μg/ml ganciclovir; 3 days of incubation; effect depended on percentage of HSV-tk positive cells
Protocol: To determine the cytotoxic effect of a small number of HSV-tk positive cells on neighboring HSV-tk-negative cells, cocultures of HSV-tk positive cells and HSV-tk-negative cells were performed by mixing these two cells in varying proportions. Briefly, mixtures of HSV-tk-positive and -negative RDFs (2.0×10^4 cells/well) were seeded at various mixing ratios (0, 1.0, 2.5, 5.0, 10, and 100% HSV-tk-positive cells of total cells) in 24-well culture plates (Corning) and incubated at 37° C. in 5% CO2 overnight. Cells were then treated with 1 μg/ml ganciclovir for 3, 5, and 7 days. The number of cells was counted with a Coulter counter (Coulter Electronics, Inc., Hialeah, Fla.).

Nc1nc(O)c2ncn(COC(CO)CO)c2n1 [ganciclovir]
IC50 (HSV-tk positive RDFs): 0.1 µg/mL (≈ 0.392 µM)
Toxicity to HSV-tk negative RDFs (HSV-tk negative RDFs): no significant toxicity
Retinal detachment (stages 3-5) ([1]; group D (5% HSV-tk positive RDFs), 200 μg ganciclovir intravitreal after cell injection and day 4, day 4 and day 7): no retinal detachment
Retinal detachment (stages 3-5) ([1]; group D (5% HSV-tk positive RDFs), 200 μg ganciclovir, day 14 and day 28): No eyes showed retinal detachment
Retinal detachment (stages 3-5) ([1]; group E (1% HSV-tk positive RDFs), 200 μg ganciclovir, day 4 and day 7): no retinal detachment
Eyes with retinal detachment (stages 3-5) ([1]; group E (1% HSV-tk positive RDFs), 200 μg ganciclovir, day 14 and day 28): 14.3%
Eyes with retinal detachment (stages 3-5) ([1]; group F (100% HSV-tk negative RDFs), 200 μg ganciclovir, day 4): 16.7%
Eyes with retinal detachment (stages 3-5) ([1]; group F (100% HSV-tk negative RDFs), 200 μg ganciclovir, day 7): 50%
Eyes with retinal detachment (stages 3-5) ([1]; group F (100% HSV-tk negative RDFs), 200 μg ganciclovir, day 14 and day 28): 66.7%
Experimental PVR [2]: inhibited
Proliferation of co-culturing cells [3]: inhibited proliferation of co-culturing cells
